Assay results: patent US9375434B2, “Antitumor effect potentiator composed of imidazooxazine compound” (Taiho Pharmaceutical Co., Ltd., priority 2012, dated 2016)

How the values were obtained:
Format in all cases: in vivo, BALB/cA Jcl-nu/nu mice
[1] = tested on: Human stomach cancer cell line (NCI-N87); assay: Potentiation of antitumor effect of paclitaxel, NCI-N87 subcutaneous implant in nude mice (Test Example 2)
Method: In the figure, the asterisk represents a result having a statistically significant difference compared with the single-drug administration group. FIG. 1 and Table 10 show the results. […] Ltd.) was prepared to enable administration at a paclitaxel dose of 60 mg/kg/day. Further, test liquids for the groups receiving only Compound-I were prepared to enable administration at Compound-I doses of 8 mg/kg/day, 16 mg/kg/day, and 24 mg/kg/day. […] In the groups receiving the two drugs, Compound-I was administered at doses of 8 mg/kg/day, 16 mg/kg/day, and 24 mg/kg/day, and paclitaxel was administered at a dose of 60 mg/kg/day. The evaluation was performed in the same manner as in Test Example 1. The effect of the combined administration was also statistically determined in the same manner as in Test Example 1. In the figure and the table, the asterisk represents a result having a statistically significant difference compared with the single-drug administration group. FIG. 3 and Table 11 show the results.

[2] = tested on: Human ovarian cancer A2780 cell line; assay: Potentiation of antitumor effect of paclitaxel, A2780 subcutaneous implant in nude mice (Test Example 1)
Method: Human ovarian cancer A2780 cell line was subcutaneously implanted into the right flank of 7-week-old male BALB/cA Jcl-nu/nu mice. After the implant, the length (mm) and the width (mm) of the tumor were measured, and the tumor volume (TV) was calculated. Thereafter, the mice were divided into groups so that the average TV is equalized in each group. The day of grouping (n=5) is referred to as Day 0. […] Test liquids for the groups receiving only Compound-I were prepared by diluting Compound-I with 0.5% hydroxypropyl methylcellulose (HPMC) so as to enable administration at a Compound-I dose of 8 mg/kg/day, 16 mg/kg/day, and 24 mg/kg/day. […] In the groups receiving the two drugs, Compound-I was administered at doses of 8 mg/kg/day, 16 mg/kg/day, and 24 mg/kg/day, and paclitaxel was administered at a dose of 60 mg/kg/day. […] In the figure, the asterisk represents a result having a statistically significant difference compared with the single-drug administration group. FIG. 1 and Table 10 show the results.

[3] = tested on: Human stomach cancer cell line (NCI-N87); assay: Potentiation of antitumor effect of lapatinib, NCI-N87 subcutaneous implant in nude mice (Test Example 4); conditions: compound-I 16 mg/kg/day p.o. day 1-14 (q.d.)
Method: In the figure, the asterisk represents a result having a statistically significant difference compared with the single-drug administration group. FIG. 1 and Table 10 show the results. […] Lapatinib was prepared by adjusting its dose to 100 mg/kg/day. Further, the test liquid of Compound-I was prepared by adjusting its dose to 16 mg/kg/day. […] The effect of the combined administration was also statistically determined in the same manner as in Test Example 1. In the figure and the table, the asterisk represents a result having a statistically significant difference compared with the single-drug administration group. FIG. 7 and Table 13 show the results.

[4] = tested on: Human stomach cancer cell line (NCI-N87); assay: Potentiation of antitumor effect of everolimus, NCI-N87 subcutaneous implant in nude mice (Test Example 7); conditions: compound-I 16 mg/kg/day p.o. day 1-14
Method: As an index of antitumor effect, the TV at Day 15 was measured for each of the drug administration groups, and the relative tumor volume (RTV) relative to Day 1 and T/C (%) were calculated by the following formulas to evaluate the antitumor effect. […] In the figure, the asterisk represents a result having a statistically significant difference compared with the single-drug administration group.
FIG. 1 and Table 10 show the results. TV (mm^3)=(length×width^2)/2 RTV=(TV at Day 15)/(TV at Day 1) T/C(%)=(average RTV value of the test liquid administration group)/(average RTV value of the control group)×100
Human stomach cancer cell line (NCI-N87) was subcutaneously implanted into the right flank of 7-week-old male BALB/cA Jcl-nu/nu mice, and was used in the same manner as in Test Example 1.
In the group receiving only everolimus (IS Chemical Technology), the test liquid was prepared to enable administration at an everolimus dose of 5 mg/kg/day. A vehicle of 5% ethyl alcohol/5% PEG400/4% Tween 20/86% distilled water was used. In the groups receiving only Compound-I, the test liquid was prepared by diluting Compound-I with 0.5% HPMC to enable administration at a Compound-I dose of 16 mg/kg/day. In the combined administration group, Compound-I was administered at a dose of 16 mg/kg/day, and everolimus was administered at a dose of 5 mg/kg/day. Both Compound-I and everolimus were orally administered once a day for 14 days from Day 1, and the evaluation was performed in the same manner as in Test Example 1. FIG. 13 and Table 16 show the results.
In the figure and the table, the asterisk represents a result having a statistically significant difference compared with the single-drug administration group.

[5] = compound-I 8 mg/kg/day p.o. day 1-14
[6] = compound-I 16 mg/kg/day p.o. day 1-14
[7] = compound-I 24 mg/kg/day p.o. day 1-14

CC1(O)CC(N)(c2ccc(-c3nc4n(c3-c3ccccc3)COc3ccncc3-4)cc2)C1 (stereo not drawn) [compound-I, trans-3-amino-1-methyl-3-(4-(3-phenyl-5H-imidazo[1,2-c]pyrido[3,4-e][1,3]oxazin-2-yl)phenyl)cyclobutanol]
RTV day 15 Mean ± SD [1, 5]: 2.02 ± 0.41
T/C (%) [1, 5]: 59%
RTV day 15 Mean ± SD [1, 6]: 1.32 ± 0.38
T/C (%) [1, 6]: 39%
RTV day 15 Mean ± SD [1, 7]: 0.98 ± 0.28
T/C (%) [1, 7]: 29%
RTV day 15 Mean ± SD [2, 5]: 23.66 ± 9.16
T/C (%) [2, 5]: 92%
RTV day 15 Mean ± SD [2, 6]: 19.91 ± 1.41
T/C (%) [2, 6]: 77%
RTV day 15 Mean ± SD [2, 7]: 18.94 ± 5.52
T/C (%) [2, 7]: 74%
RTV day 15 Mean ± SD [3]: 1.14 ± 0.11
T/C (%) [3]: 42%
RTV day 15 Mean ± SD [4]: 1.19 ± 0.27
T/C (%) [4]: 43%
